Consider 30 compounds from US20040024024A1, “Aromatic sulfone hydroxamates and their use as protease inhibitors” (priority 2001, published 2004).

For one experiment, the target named is T1, Human recombinant MMP-9 (Homo sapiens, UniProt P14780).
T1 construct: made in house; host or cells: MMP-9-transfected HT1080 cells (spent media)
Nature of the experiment: In vitro MMP inhibition, Ki determination (fluorogenic substrate II). In kind it is biochemical. The gist of the method:
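MMP-9 proenzyme purified from transfected HT1080 cell media, activated with APMA, trypsin or recombinant MMP-3; hydroxamates diluted in pH 7.5 Tris/NaCl/CaCl2 buffer. Cleavage of 4 μM MCA/Dpa substrate II followed by fluorescence (ex 330/em 420 nm), 1 h at room temperature. Ki from Morrison-equation fit, substrate at/below Km, uncorrected.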

A further experiment deals with T2, Human recombinant MMP-2 (Homo sapiens, UniProt P08253).
T2 construct: made in house; host or cells: MMP-2-transfected p2AHT2 cells
T2 sequence (P08253 110-660): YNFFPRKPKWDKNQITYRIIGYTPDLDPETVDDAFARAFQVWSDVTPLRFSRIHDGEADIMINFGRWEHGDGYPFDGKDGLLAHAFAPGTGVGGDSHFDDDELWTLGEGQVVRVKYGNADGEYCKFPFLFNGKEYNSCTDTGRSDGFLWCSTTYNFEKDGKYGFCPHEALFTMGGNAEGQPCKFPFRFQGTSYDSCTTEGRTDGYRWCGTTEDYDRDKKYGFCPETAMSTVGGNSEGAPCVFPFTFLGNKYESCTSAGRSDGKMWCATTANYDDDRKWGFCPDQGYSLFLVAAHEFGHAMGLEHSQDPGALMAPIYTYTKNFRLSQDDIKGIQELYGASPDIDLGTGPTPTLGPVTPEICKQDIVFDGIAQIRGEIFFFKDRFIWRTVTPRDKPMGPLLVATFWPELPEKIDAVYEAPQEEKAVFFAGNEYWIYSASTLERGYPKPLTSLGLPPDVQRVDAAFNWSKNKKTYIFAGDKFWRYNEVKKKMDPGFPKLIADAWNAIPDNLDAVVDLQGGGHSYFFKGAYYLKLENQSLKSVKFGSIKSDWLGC
The experiment is described as above. In kind it is biochemical.

Some results are limits rather than exact numbers.

T1 sequence (P14780 107-707 limits assumed): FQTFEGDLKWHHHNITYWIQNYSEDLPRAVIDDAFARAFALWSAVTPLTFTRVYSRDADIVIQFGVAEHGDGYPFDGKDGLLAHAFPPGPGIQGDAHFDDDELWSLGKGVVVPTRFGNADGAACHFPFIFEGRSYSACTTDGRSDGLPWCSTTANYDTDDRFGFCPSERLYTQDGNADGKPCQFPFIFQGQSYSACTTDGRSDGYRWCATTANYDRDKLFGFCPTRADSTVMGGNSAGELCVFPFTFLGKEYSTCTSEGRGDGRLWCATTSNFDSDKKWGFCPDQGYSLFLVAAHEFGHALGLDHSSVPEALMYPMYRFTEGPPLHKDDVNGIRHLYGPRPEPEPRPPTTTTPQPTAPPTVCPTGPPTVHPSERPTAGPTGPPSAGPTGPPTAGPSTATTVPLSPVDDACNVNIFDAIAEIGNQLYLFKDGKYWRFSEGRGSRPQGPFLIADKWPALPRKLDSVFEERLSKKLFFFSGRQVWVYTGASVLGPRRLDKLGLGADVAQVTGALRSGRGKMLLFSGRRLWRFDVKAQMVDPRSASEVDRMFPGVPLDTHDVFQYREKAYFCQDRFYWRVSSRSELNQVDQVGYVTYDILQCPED

The Ki is the dissociation constant of the complex between target and ligand, obtained from inhibition or displacement. On to `O=C(NO)C1(S(=O)(=O)c2ccc(OCCCc3nc(C4CCCCC4)no3)cc2)CCN(C2CC2)CC1` [Example 137], for which the inhibition constant Ki was found to be 0.604 µM on Human recombinant MMP-9 (value in parenthesis) and 0.0366 µM on Human recombinant MMP-2 (value in parenthesis).
With `CCN1CCC(C(=O)NO)(S(=O)(=O)c2ccc(OCCCc3cccc(-c4ccc(Cl)cc4)c3)cc2)CC1` [Example 526], the Ki on Human recombinant MMP-9 (value in parentheses) stood at 2.07 µM; on Human recombinant MMP-2 (value in parentheses), 1.68 µM.
In the case of `CCCc1ccc(CCCOc2ccc(S(=O)(=O)C3(C(=O)NO)CCOCC3)cc2)cn1` [Example 534], the inhibition constant Ki on Human recombinant MMP-9 (value in parentheses) amounted to 0.324 µM; at Human recombinant MMP-2 (value in parentheses), 0.0254 µM.
In the same order, the values of `COCCN1CCC(C(=O)NO)(S(=O)(=O)c2ccc(OCCc3cccc(-c4cccnc4)c3)cc2)CC1` [Example 539] are 0.0855 µM and 0.0386 µM.
With `COCCN1CCC(C(=O)NO)(S(=O)(=O)c2ccc(OCCCc3cccc(-c4cccc(F)c4)c3)cc2)CC1` [Example 511], the values for the inhibitory constant (Ki) on Human recombinant MMP-9 (value in parentheses) and at Human recombinant MMP-2 (value in parentheses) were 0.0385 µM and 0.526 µM, respectively.
`COCCN1CCC(C(=O)NO)(S(=O)(=O)c2ccc(OCCCc3cccc(-c4ccc(C#N)cc4)c3)cc2)CC1` [Example 514]: the Ki came out at 0.224 µM on Human recombinant MMP-9 (value in parentheses) and 0.293 µM at Human recombinant MMP-2 (value in parentheses).
In the same order, the values of `CCCCCCCOc1ccc(S(=O)(=O)C2(C(=O)NO)CCOCC2)cc1` [Example 507] are 0.00044 µM and 0.00084 µM.
Consider `COCCN1CCC(C(=O)NO)(S(=O)(=O)c2ccc(OCCc3cccc(-c4ccc(F)cc4)c3)cc2)CC1` [Example 544], for which the inhibition constant (Ki) on Human recombinant MMP-9 (value in parentheses) worked out at 0.787 µM; on Human recombinant MMP-2 (value in parentheses), 0.302 µM.
Take `Cc1ccc(NC(=O)CCCOc2ccc(S(=O)(=O)C3(C(=O)NO)CCOCC3)cc2)cc1I` [Example 527]: the inhibitory constant (Ki) was found to be 0.0304 µM at Human recombinant MMP-9 (value in parentheses) and 0.0213 µM on Human recombinant MMP-2 (value in parentheses).
As to `O=C(NO)C1(S(=O)(=O)c2ccc(OCCc3cccc(-c4ccc(OC(F)(F)F)cc4)c3)cc2)CCOCC1` [Example 112], the figures for the Ki on Human recombinant MMP-9 (value in parenthesis) and at Human recombinant MMP-2 (value in parenthesis) were 8.85 µM and 3.97 µM, respectively.
Turning to `CCc1ccc(COc2ccc(S(=O)(=O)C3(C(=O)NO)CCOCC3)cc2)cn1` [Example 552], the Ki on Human recombinant MMP-9 (value in parentheses) was 0.00222 µM; at Human recombinant MMP-2 (value in parentheses), 0.00494 µM.
On to `COCCN1CCC(C(=O)NO)(S(=O)(=O)c2ccc(OCCc3ccc(-c4ccc(C#N)cc4)cc3)cc2)CC1` [Example 543], for which the Ki on Human recombinant MMP-9 (value in parentheses) came out at 0.207 µM; at Human recombinant MMP-2 (value in parentheses), 0.124 µM.
As to `COCCN1CCC(C(=O)NO)(S(=O)(=O)c2ccc(OCCCc3cccc(-c4ccc(F)cc4F)c3)cc2)CC1` [Example 513], the inhibition constant (Ki) at Human recombinant MMP-9 (value in parentheses) came out at 0.255 µM; at Human recombinant MMP-2 (value in parentheses) it was 0.88 µM.
`CCc1ccc(CCCOc2ccc(S(=O)(=O)C3(C(=O)NO)CCOCC3)cc2)cn1` [Example 535]: the figures for the Ki at Human recombinant MMP-9 (value in parentheses) and on Human recombinant MMP-2 (value in parentheses) were 0.128 µM and 0.0232 µM, respectively.
Consider `O=C(NO)C1(S(=O)(=O)c2ccc(OCCc3ccc(-c4ccc(O)cc4)cc3)cc2)CCOCC1` [Example 531], for which the Ki stood at 0.774 µM on Human recombinant MMP-9 (value in parentheses) and 0.337 µM at Human recombinant MMP-2 (value in parentheses).
As to `CCCCc1ccc(CCCOc2ccc(S(=O)(=O)C3(C(=O)NO)CCOCC3)cc2)cn1` [Example 533], the inhibition constant (Ki) on Human recombinant MMP-9 (value in parentheses) is 0.141 µM; at Human recombinant MMP-2 (value in parentheses), 0.0293 µM.
With `CC(C)c1ccc(-c2cccc(CCOc3ccc(S(=O)(=O)C4(C(=O)NO)CCOCC4)cc3)c2)cc1` [Example 109], the inhibitory constant (Ki) at Human recombinant MMP-9 (value in parenthesis) is above 10 µM; on Human recombinant MMP-2 (value in parenthesis), 8.1 µM.
Regarding `O=C(NO)C1(S(=O)(=O)c2ccc(OCCc3cccc(-c4ccc(Cl)c(Cl)c4)c3)cc2)CCOCC1` [Example 121], the Ki was above 10 µM on Human recombinant MMP-9 (value in parenthesis) and 4.62 µM on Human recombinant MMP-2 (value in parenthesis).
For the compound `Cc1ccccc1-c1cccc(CCOc2ccc(S(=O)(=O)C3(C(=O)NO)CCOCC3)cc2)c1` [Example 116], the figures for the inhibitory constant (Ki) on Human recombinant MMP-9 (value in parenthesis) and at Human recombinant MMP-2 (value in parenthesis) were 5.55 µM and 1.25 µM, respectively.
For `O=C(NO)C1(S(=O)(=O)c2ccc(OCCCOc3cccnc3)cc2)CCOCC1` [Example 560], the inhibitory constant (Ki) is 0.00717 µM on Human recombinant MMP-9 (value in parentheses) and 0.0103 µM on Human recombinant MMP-2 (value in parentheses).
Regarding `COCCN1CCC(C(=O)NO)(S(=O)(=O)c2ccc(OCCc3cccc(-c4ccccn4)c3)cc2)CC1` [Example 548], the Ki on Human recombinant MMP-9 (value in parentheses) was determined as 0.279 µM; on Human recombinant MMP-2 (value in parentheses) it was 0.00158 µM.
For the compound `COCCN1CCC(C(=O)NO)(S(=O)(=O)c2ccc(OCCCc3cccc(-c4cccnc4)c3)cc2)CC1` [Example 509], the figures for the Ki at Human recombinant MMP-9 (value in parentheses) and at Human recombinant MMP-2 (value in parentheses) were 0.0509 µM and 0.0893 µM, respectively.
In the same order, the values of `CCCc1ccc(COc2ccc(S(=O)(=O)C3(C(=O)NO)CCOCC3)cc2)cn1` [Example 550] are 0.00751 µM and 0.00549 µM.
In the same order, the values of `CCCCC(=O)CCCOc1ccc(S(=O)(=O)C2(C(=O)NO)CCOCC2)cc1` [Example 506] are 0.0114 µM and 0.00192 µM.
In the same order, the values of `COCCN1CCC(C(=O)NO)(S(=O)(=O)c2ccc(OCCCc3cccc(-c4cccs4)c3)cc2)CC1` [Example 510] are 0.0398 µM and 0.00785 µM.
As to `COc1ccc(-c2cccc(CCOc3ccc(S(=O)(=O)C4(C(=O)NO)CCOCC4)cc3)c2)cc1C` [Example 119], the Ki worked out at 3.95 µM at Human recombinant MMP-9 (value in parenthesis) and 1.68 µM at Human recombinant MMP-2 (value in parenthesis).
Turning to `O=C(NO)C1(S(=O)(=O)c2ccc(OCCc3cccc(-c4ccc(Cl)cc4Cl)c3)cc2)CCOCC1` [Example 124], the Ki at Human recombinant MMP-9 (value in parenthesis) was above 10 µM; on Human recombinant MMP-2 (value in parenthesis), 5.73 µM.
In the same order, the values of `CCCCc1ccc(-c2noc(CCCOc3ccc(S(=O)(=O)C4(C(=O)NO)CCOCC4)cc3)n2)c(C)c1` [Example 183] are 2.51 µM and 0.643 µM.
Regarding `O=C(NCCSc1ccc(S(=O)(=O)C2(C(=O)NO)CCOCC2)cc1)c1nc2ccccc2s1` [Example 598], the Ki at Human recombinant MMP-9 (value in parentheses) was found to be 0.705 µM; at Human recombinant MMP-2 (value in parentheses), 0.599 µM.
For `O=C(NO)C1(S(=O)(=O)c2ccc(OCCCc3cccc(-c4ccc(Cl)c(Cl)c4)c3)cc2)CCOCC1` [Example 169], the Ki stood at 6.5 µM at Human recombinant MMP-9 (value in parenthesis) and 5.36 µM at Human recombinant MMP-2 (value in parenthesis).
